These results are taken from ChEMBL document CHEMBL5380820, “Design and Discovery of Novel Cyclic Peptides as EDPs-EBP Interaction Inhibitors for the Treatment of Liver Fibrosis” (J Med Chem, 2023).

Active and inactive are the calls of the source. The calls are words filed in the database; no cut-off is given here. Where a SMILES comes first, the peptide text is derived from it. Bridges are numbered along the chain shown (N, C = ends).

Data set [1] deals with Mus musculus. The experiment in a line: Antifibrotic activity in CCl4-induced C57BL/6 mouse model of liver fibrosis assessed as reduction in serum AST level treated at 150 ug/kg, ip daily for 3 weeks. To be noted: dose 150.0 µg/kg. Format: functional, organism-based.
Data set [2] deals with Mus musculus. The experiment in a line: Antifibrotic activity in CCl4-induced C57BL/6 mouse model of liver fibrosis assessed as reduction in serum ALT level treated at 150 ug/kg, ip daily for 3 weeks. The settings on record: dose 150.0 µg/kg. Format: functional, organism-based.
In data set [3] the test system is LX-2. The experiment in a line: Antifibrotic activity against TGF-beta induced human LX2 cells assessed as reduction of collagen I expression measured at 10 uM for 24 hrs by measuring fluorescence intensity. Format: functional, cell-based.
Data set [4] has as its system Mus musculus. The experiment in a line: Antifibrotic activity in CCl4-induced C57BL/6 mouse model of liver fibrosis assessed as reduction of collagen deposition in liver treated at 150 ug/kg, ip daily for 3 weeks fasted for 9 hrs after last dose and sacrificed after 8 hrs of fasting by hematoxylin and eosin staining analysis. Format: functional, organism-based. The settings on record: dose 150.0 µg/kg, time 3.033 weeks.

Data set [5] can be described thus: Half life in Sprague-Dawley rat plasma at 0.6 mg/kg, sc by HPLC-MS/MS analysis. Format: ADME, organism-based.
The subject of data set [6] is LX2. As to the kind of experiment: Inhibition of elastin receptor complex elastin binding protein subunit in human LX2 cells assessed as inhibition of EDP induced PI3K phosphorylation treated at 10 uM for 24 hrs by Western blot analysis. It is filed as cell-based. (In general: Immunoblotting shows a protein as a band on a membrane.)
For data set [7], the system named is LX-2. As to the kind of experiment: Antifibrotic activity against TGF-beta induced human LX2 cells assessed as reduction of alpha-SMA expression measured at 10 uM for 24 hrs by measuring fluorescence intensity. It is filed as functional, cell-based.
The subject of data set [8] is LX-2. The experiment in a line: Antiproliferative activity against TGF-beta induced human LX2 cells assessed as decrease in cell proliferation at 10 uM for 24 hrs by BeyoClick EdU cells proliferation kit with Alex Fluor 488 and DAPI staining analysis. It is filed as functional, cell-based.
Data set [9] has as its system LX2. As to the kind of experiment: Inhibition of elastin receptor complex elastin binding protein subunit in human LX2 cells assessed as inhibition of EDP induced AMPK phosphorylation treated at 10 uM for 24 hrs by Western blot analysis. It is filed as cell-based.
Data set [10] can be described thus: Stability in mouse serum measured at 0 to 48 hrs by RP-HPLC-MS analysis. It is filed as ADME, cell-free. To be noted: time 0-48 hrs.
A short description of data set [11]: Tmax in Sprague-Dawley rat plasma at 0.6 mg/kg, sc by HPLC-MS/MS analysis. Format: ADME, organism-based.
Data set [12] has as its system LX-2. The experiment in a line: Antifibrotic activity against TGF-beta induced human LX2 cells assessed as inhibition of collagen I expression by measuring fluorescence intensity relative to control. It is filed as functional.
The test system of data set [13] is LX-2. The experiment in a line: Antifibrotic activity against TGF-beta induced human LX2 cells assessed as reduction of alpha-SMA expression measured at 10 uM for 24 hrs by measuring fluorescence intensity relative to control. Further details: scale not given: the % may be the effect or the level left. It is filed as functional.
Data set [14] deals with LX-2. The experiment in a line: Antifibrotic activity against TGF-beta induced human LX2 cells assessed as inhibition of neuraminidase activity using NA fluorogenic substrate by measuring fluorescence intensity relative to control. Format: functional.
The test system of data set [15] is LX-2. As to the kind of experiment: Antifibrotic activity against TGF-beta induced human LX2 cells assessed as reduction of alpha-SMA expression derived peptide measured by Western blotting analysis. Format: functional, cell-based. To be noted: dose 0.01-100 µmol/L.
The test system of data set [16] is LX-2. As to the kind of experiment: Antifibrotic activity against TGF-beta induced human LX2 cells assessed as reduction of collagen I expression measured at 10 uM for 24 hrs by measuring fluorescence intensity relative to control. Further details: scale not given: the % may be the effect or the level left. It is filed as functional.
Data set [17] relates to LX2. The experiment in a line: Inhibition of elastin receptor complex elastin binding protein subunit in human LX2 cells assessed as inhibition of EDP induced ERK phosphorylation treated at 10 uM for 24 hrs by Western blot analysis. Format: cell-based.
Data set [18] has as its system Mus musculus. The experiment in a line: Antifibrotic activity in CCl4-induced C57BL/6 mouse model of liver fibrosis assessed as reduction in alpha-SMA level treated at 150 ug/kg, ip daily for 3 weeks by Western blo analysis. Format: functional, organism-based. To be noted: dose 150.0 µg/kg.
For data set [19], the system named is LX-2. As to the kind of experiment: Antifibrotic activity against TGF-beta induced human LX2 cells assessed as inhibition of alpha-SMA expression by measuring fluorescence intensity relative to control. Format: functional.
For data set [20], the system named is LX-2. The experiment in a line: Antifibrotic activity against TGF-beta induced human LX2 cells assessed as inhibition of neuraminidase activity using NA fluorogenic substrate measured at 10 uM for 24 hrs by measuring fluorescence intensity. Format: functional, cell-based.

Turning to `Cc1ccc(=O)n(-c2ccccc2)c1`, the outcome in the data set on Mus musculus [1] and in the data set with Mus musculus [2] was Active.

In the case of H-VVGSPSAQDEASPL-NH2, the outcome in the data set with LX-2 [3], in the data set with Mus musculus [4], in the data set on LX-2 [7], with LX-2 [8], in the data set on Mus musculus [1] and in the data set on Mus musculus [2] was Active. In the data set with Mus musculus [18], the outcome was Active. In [5], the half-life (as a rule, the time in which the quantity being followed falls by half) is 4.8 min. The inhibition entry in the data set on LX2 [6], in the data set on LX2 [9] and in the data set on LX2 [17] was “Active” each time. Moreover, the Stability in data set [10] was 40%. Besides, in data set [11], the Tmax (commonly the time at which the peak concentration occurs) turned out to be 4.8 min. The “inhibition (INH)” value in the data set on LX-2 [12] turned out to be 22.5%; in the data set with LX-2 [14], 37%; with LX-2 [19], 27.5%. Further, the Activity was approximately 50% in the data set with LX-2 [13], “Dose-Dependent Effect” with LX-2 [15] and approximately 50% with LX-2 [16].

Regarding `CC(C)[C@@H]1NC(=O)CNC(=O)[C@@H]2CCCN2C(=O)[C@H](CO)NC(=O)[C@H](C)NC(=O)[C@H](CCC(=O)O)NC(=O)[C@H](CC(=O)O)NC(=O)[C@H](CCC(N)=O)NC(=O)[C@H](C)NC(=O)[C@H](Cc2ccccc2)NC(=O)[C@@H]2CCCN2C(=O)[C@H](CO)NC(=O)CNC(=O)[C@H](C(C)C)NC1=O` (cyclo(AQDEASPGVVGSPF)), in the data set on LX-2 [12], the inhibition entry is “inactive”. The “inhibition (INH)” value was found to be 40.9% with LX-2 [14] and 0.1% in the data set with LX-2 [19]. The outcome in the data set on Mus musculus [1] and with Mus musculus [2] was Active. Besides, the result in the data set with LX-2 [15] was inactive.

Regarding `CC(C)C[C@H](NC(=O)[C@@H]1CCCN1C(=O)[C@H](CO)NC(=O)[C@H](C)NC(=O)[C@@H]1CCC(=O)N[C@@H](C(C)C)C(=O)N[C@@H](C(C)C)C(=O)NCC(=O)N[C@@H](CO)C(=O)N2CCC[C@H]2C(=O)N[C@@H](CO)C(=O)N[C@@H](C)C(=O)N[C@@H](CCC(N)=O)C(=O)N[C@@H](CC(=O)O)C(=O)N1)C(=O)O` (VVGSPSAQDEASPL-OH; lactam N-10), the inhibition entry in the data set on LX2 [6], in the data set with LX2 [9] and in the data set on LX2 [17] was “Active” each time. Besides, the outcome with LX-2 [8] was Active. The results for the “inhibition (INH)” value in the data set on LX-2 [12], in the data set on LX-2 [14] and in the data set on LX-2 [19] were 33.5%, 68% and 34.8%, respectively. The Activity in the data set on LX-2 [13] and in the data set with LX-2 [16] was approximately 50% in each case.

Regarding `CC(C)C[C@@H]1NC(=O)[C@@H]2CCCN2C(=O)[C@H](CO)NC(=O)CNC(=O)[C@H](C(C)C)NC(=O)[C@H](C(C)C)NC(=O)[C@H](CC(C)C)NC(=O)[C@@H]2CCCN2C(=O)[C@H](CO)NC(=O)[C@H](C)NC(=O)[C@H](CCC(=O)O)NC(=O)[C@H](CC(=O)O)NC(=O)[C@H](CCC(N)=O)NC(=O)[C@H](C)NC1=O` (cyclo(AQDEASPLVVGSPL)), the “inhibition (INH)” value turned out to be 9.8% in the data set on LX-2 [12], 9% in the data set with LX-2 [14] and 1.7% in the data set with LX-2 [19]. Further, the result with Mus musculus [1] and in the data set on Mus musculus [2] was Active.

Regarding H-VVGSPSAQDEASAL-NH2, the result in the data set with LX-2 [3], in the data set on LX-2 [7] and in the data set with LX-2 [20] was inactive. For the same compound, the “inhibition (INH)” value came to 20.6% in the data set on LX-2 [12], 23.9% in the data set with LX-2 [14] and 18.5% in the data set with LX-2 [19].
